Experiment [1] deals with MSC cultures induced to become osteoblasts. Briefly: Osteogenesis: mineral formation in MSC with osteoinduction media (alizarin red-S staining). It is filed as cell-based, human. From the text: Methods: Human Bone Marrow was Collected from Consenting Adult Patients undergoing either an elective primary proximal femoral total hip arthroplasty or elective primary distal femoral total knee arthroplasty (n=6, mean age 65) as a part of an IRB approved study. Human MSC were derived from the adherent fraction of cells derived from each whole bone marrow aspirate collected, while the monocyte population was collected from the non-adherent fraction of the bone marrow. The monocyte fraction was enriched through sub-culture with 100-ng/mL recombinant human macrophage colony-stimulating factor (MCSF; Wyeth). In parallel experiments described below, the femurs from 3-week (n=10) and 16-week (n=20) old male mice were collected and then the bone marrow was flushed from the femur according to the following: A 21-gauge needle was inserted into the femoral intramedular canal after the removal of the proximal and distal ends of the femur. Media was then carefully passed through the proximal end of the femur, which forced the bone marrow to pass out of the bone. Finally, the bone marrow pellet was mechanically disassociated using an 18-gauge needle and then passed through a 70-μm mesh filter. These whole bone marrow aspirates were used to generate osteoclasts. Cells were maintained in Dulbecco's Modification of Eagle's Media (DMEM) containing 10% fetal calf serum (v/v) and 1% penicillin-streptomycin-glutamine (PSG; Cellgro, Mediatech). […] The responsible IACUC committee approved all of the animal studies described in this work.
Osteogenesis: Osteogenic potential in MSC was assayed by chemically inducing mineral formation. MSC from at least three human patients were seeded at 5×10^3 cells per well and allowed to become confluent and woven prior to the addition of osteo-induction media. Induction media consisted of DMEM containing 20% FCS (v/v) and 1% PSG supplemented with 25-μg/mL of acscorbic-2-phosphate (Sigma), 100-nM dexamethasone (Sigma) and the following dosing regimen of β-glycerophosphate (BGP; Sigma): 1× media change with 5-mM BGP, 1× media change with 10-mM BGP and 1× media change with 20-mM of BGP. Met5-ligand (0-, [5-μM] 2.87-, or [50-μM] 28.7-μg; Sigma), naloxone (0-, 400-fg, 400-pg, 400-ng, 400-μg; Sigma) or naltrexone (0-, 378-fg, 378-pg, 378-ng, 378-μg; Sigma) was added as follows: 1) 1×, with the first addition of osteo-induction media, 2) 2×, with the first and second addition of osteo-induction media and 3) with each post-induction media change. […] After the appearance of mineral nodules, cells were fixed with 70% ice-cold EtOH (Sigma) and then stained using 40-mM alizarin red-S (pH 4.2, Sigma). Osteogenesis experiments were repeated at least twice for each patient.

Experiment [2] deals with monocytes cultured to become osteoclasts. Nature of the experiment: TRAP staining and assay of osteoclast number. It counts as cell-based, human, mouse. The protocol: TRAP Staining and the Assay of Osteoclast Number: Osteoclasts were derived from either an enriched population of human monocytes or from mouse non-enriched whole bone marrow aspirates. Three human patient bone marrow samples were assayed in parallel with samples collected from 3-week (n=10) mouse bone marrow. The monocyte fraction was stimulated to become osteoclasts by culturing 1×10^6 cells with 25-ng/mL of MCSF and 25-ng/mL of recombinant human or mouse RANK-ligand (R&D Systems) in the presence of the met5-ligand ([5-μM] 2.87-, or [50-μM] 28.7-μg; Sigma), naloxone (400-ng or 400-μg; Sigma) or naltrexone (378-ng or 378-μg; Sigma). Osteoclasts were stained with tartrate resistant acid phosphatase (TRAP; Sigma Leukocyte Acid Phosphatase Kit 387-A) and counted when cells stained TRAP-positive and had at least three nuclei. Estimates of osteoclast number were obtained by Cavalieri sampling and a modification of the fractionator technique.

The test system of experiment [3] is RDES Ewing's sarcoma of bone tumor cells. Briefly: Assay of cell number (MTT), RDES cells. It counts as cell-based. The text has this: (§1) Methods: Human bone marrow was collected from consenting adult patients undergoing either an elective primary proximal femoral total hip arthroplasty or elective primary distal femoral total knee arthroplasty (n=6, mean age 65) as a part of an IRB approved study. Human MSC were derived from the adherent fraction of whole bone marrow aspirates. Ewing's sarcoma tumor cells (RDES, Hs822 and Hs863) and SaOS2 osteosarcoma tumor cells were obtained from ATCC. Cells were maintained in Dulbecco's Modification of Eagle's Media (DMEM) containing 10% fetal calf serum (v/v) and 1% penicillin-streptomycin-glutamine (PSG; Cellgro, Mediatech).
(§2) Assay of Cell Number: Following the addition of 1-mM naloxone or 1-mM naltrexone, viable cell number was determined with the MTT assay. After 72-hours and 120-hours, MTT (5 mg/ml (w/v), Sigma) was added to each well, incubated for 2-hours, after which the cells lysed with 500-μl of DMSO (Sigma). MTT was measured at 570-nm and the effects of therapy on cell proliferation were determined by normalizing treated wells relative to mean values from non-treated wells: Fold change in cell number=100*[treated cells optical density/mean control optical density].

Experiment [4] has as its system Hs822t Ewing's sarcoma of bone tumor cells. Nature of the experiment: Assay of cell number (MTT), Hs822t cells. It is filed as cell-based.
Text: as §1, §2

The test system of experiment [5] is SaO52 osteosarcoma tumor cells. Nature of the experiment: Assay of cell number (MTT), osteosarcoma cells. It counts as cell-based.
Text: as §1, §2

Experiment [6] concerns unicortical defect in mouse tibia. Nature of the experiment: Opioid antagonist containing collagen implant in unicortical defect model, microCT. It is filed as in vivo, C57BL/6 mice. Particulars: 7 days after surgery. From the text:
Implantation of Opioid Antagonist Containing Collagen Implant into a Unicortical Defect Model: Male 5-week old C57BL/6 mice (n=5 per treatment group for a total of 25 total animals) were used in this study. […] Unicortical defects were surgically administered through a small incision (approximately 3-mm) made just below the knee joint, located on the medial side of the tibia just below the tibial tuberosity on the tibial crest. In 5-weeks old male mice, the physeal plate is clearly visible and the drill bit was placed approximately 1-mm below this point. The drill-bit produces a unicortical defect with dimensions 300-μm diameter×1-mm depth. […] In parallel, a separate group of animals served as non-surgical controls. Mice were euthanized 7-days after surgery, hind limbs were collected and tibias were prepared for micro-CT (μCT) analysis.
(§3) MicroCT Analysis of Unicortical Defects: High-resolution images of the tibia were acquired with μCT imaging system (μT40; Scanco Medical). Tibias were scanned at 45-keV with an isotropic voxel size of 12-μm. An analysis region was selected from axial sections to include the entire unicortical defect bounded by the endosteal cortical wall. The volume corrected bone volume (bone volume/total volume; By/Tv), trabecular number (TbN) and trabecular thickness (TbTh) were calculated using the Scanco software.

For experiment [7] the test system is unchanged. Nature of the experiment: Unicortical defect model, direct injection, microCT. It is filed as in vivo, C57BL/6 mice. Particulars: naloxone 1-mM or met5 50-μM. The protocol: Unicortical Defect Model: Male 3-week old C57BL/6 mice (n=5 per treatment group) were injected with met5, naloxone or naltrexone following the creation of a unicortical defect. Briefly, a small incision (approximately 3-mm) was made just below the knee joint, located on the medial side of the tibia just below the tibial tuberosity on the tibial crest. In young animals the physeal plate is clearly visible and the drill bit was placed approximately 1-mm below this point. The drill-bit produces a unicortical defect with dimensions 300-μm diameter×1-mm depth. A Hamilton Neuros RN 10-μL syringe with a 33-gauge blunt tip needle was used to inject 2-μL of met5 (28.7-μg), naloxone (400-μg) or naltrexone (378-μg) resuspended in saline directly into the unicortical defect at a rate no faster than approximately 0.1-μL per second. The left-limb tibias served as contra-lateral surgical controls, in which animals received a unicortical defect and 2-μL of saline was injected. Mice were euthanized 5-days after surgery, hind limbs were collected and tibias were fixed for immunofluorescence, TRAP staining and OTC associated bone growth.
as §3

The mark [8] stands for this setting: collagen implant, 25-ng BMP2, 1-mM naltrexone or 1-mM naloxone.
Setting [9] is: 50-μM met5 with collagen implant.

Entries after “also recorded” stand apart in the source; their conditions may differ.

With `O=C1CC[C@@]2(O)[C@H]3Cc4ccc(O)c5c4[C@@]2(CCN3CC2CC2)[C@H]1O5` [naltrexone], the “mineral accumulation (red staining)” value in experiment [1] (between 1-μM and 1-mM with osteoinduction media) is reported as “increased mineral, but to a lesser extent than naloxone”. The “osteoclast number (TRAP staining)” value in experiment [2] (1-mM) is “reduced osteoclast number substantially”. Besides, in experiment [2] (1-μM), the “osteoclast number (TRAP staining)” value is reported as “did not significantly reduce osteoclast number”. The “RDES tumor cell number relative to control cultures” value in experiment [3] (1-mM, seventy-two hours) is reported as “decreased significantly”. The “Hs822t tumor cell number relative to control cultures” value in experiment [4] (1-mM, seventy-two hours) was “decreased relative to the control cultures”. Moreover, the “SaO52 osteosarcoma cell number relative to control cultures” value in experiment [5] (1-mM, seventy-two hours) is listed as “decreased significantly”. Also, in experiment [6] (collagen implant), the “Bv/Tv relative to non-surgical controls” value is on record as “increased relative to non-surgical controls” and the “trabecular thickness (TbTh) relative to the control non-surgical group” value was “increased within the defect significantly”. For the same molecule, the “Bv/Tv compared with the BMP2 treated group” value in experiment [6] (collagen implant, 1-mM) is reported as “no significant difference”. In addition, in experiment [6] (setting [8]), the “increase in Bv/Tv relative to the PBS treated group” value was determined as 39.2% and the “increase in Bv/Tv relative to the surgical control group” value is given as 63.5%.
Turning to “Tyr-Gly-Gly-Phe-Met (YGGFM; printed: Tyr-Gly-Gly-Phe-Met) [met5, opioid growth factor (OGF or met-5 enkephalin), the native ligand for the OGFR]”, in experiment [1] (5-μM met5 added to osteoinduction media), the mineral accumulation result was “no effect on mineral formation in culture; also recorded: no effect on mineral accumulation”. In addition, in experiment [1] (50-μM met5 added to osteoinduction media), the mineral accumulation result was “no effect on mineral formation in culture; also recorded: decreased mineral accumulation slightly”. Moreover, the “osteoclast number (TRAP staining)” value in experiment [2] (met5, relative to control osteoclast cultures) is “unaffected”. Besides, the “RDES tumor cell number” value in experiment [3] (met5) is given as “no effect”. For the same molecule, in experiment [4] (50-μM of met5), the “Hs822t tumor cell number” value is “significant increase”. The bone healing result in experiment [7] is reported as “no effect”. In addition, the “SaO52 osteosarcoma cell number” value in experiment [5] (met5) is “had not effect on cell number”. Besides, in experiment [6] (setting [9]), the “Bv/Tv greater than the non-surgical control group” value is recorded as “approximately 37%” and the “fracture healing (Bv/Tv) compared with the surgical control group” value is listed as “not significantly different”. Besides, the “trabecular thickness (TbTh) relative to the control non-surgical group” value in experiment [6] (collagen implant) is recorded as “increased within the defect significantly”.

The record behind these values is patent US12258561B2, “Compositions and methods to promote bone formation and their uses including for the treatment of cancer” (THE RESEARCH FOUNDATION FOR THE STATE UNIVERSITY OF NEW YORK, priority 2014, dated 2025).
